According to US20230256139A1, “IMPLANT SURFACES FOR PAIN CONTROL” (The General Hospital Corporation, priority 2016, published 2023):
Values joined by “and” are separate entries in the source; they are usually repeats but may differ in a detail not shown here. Equal values may be shown once. Read-outs that look alike come from different tables or passages of the source.

Assays:
[1] = Elution of lidocaine-blended UHMWPE cubes in 40° C. DI water, FTIR lidocaine index profile; format: physicochemical; settings: 0.25 wt % and 0.50 wt % lidocaine blends, up to 6 weeks
Description: These cubes were then immersed in 40° C. DI water. Groups of n=3 cubes per each wt. % were removed from the DI water and analyzed via FTIR at the following time points: 0 weeks (Control), 1 week, 2 weeks, 4 weeks, and 6 weeks.

[2] = for amount of lidocaine eluted: cubes doped 640 min at 100° C.
Description: The cubes were microtomed perpendicular to a surface plane in the middle of the said surface and the FTIR spectra of the thin sections prepared as described above were obtained as a function of depth from the surface towards the bulk.

[3] = CISM 1 cm cubes, 120° C.
[4] = cited from earlier work

2-(Dimethylamino)-N-(2,6-Dimethylphenyl)acetamide [lidocaine]
surface concentration of lidocaine in UHMWPE with increasing elution time [1]: decrease | lidocaine eluted, percent ([2]; 40° C. DI H2O, 1 day): 13% | amount of lidocaine eluted ([2]; 40° C. DI H2O, 1 day): 1.4 ± 0.1 mg | lidocaine eluted, percent ([2]; 40° C. DI H2O, 2 days): 20% | amount of lidocaine eluted ([2]; 40° C. DI H2O, 2 days): 2.2 ± 0.1 mg | lidocaine eluted, percent ([2]; 40° C. DI H2O, 7 days): 34% | amount of lidocaine eluted ([2]; 40° C. DI H2O, 7 days): 3.6 ± 0.1 mg | lidocaine eluted, percent ([2]; 40° C. DI H2O, 14 days): 45% | amount of lidocaine eluted ([2]; 40° C. DI H2O, 14 days): 4.8 ± 0.1 mg | lidocaine eluted, percent ([2]; 40° C. DI H2O, 28 days): 59% | amount of lidocaine eluted ([2]; 40° C. DI H2O, 28 days): 6.3 ± 0.2 mg | lidocaine eluted, percent ([2]; 40° C. DI H2O, 56 days): 70% | amount of lidocaine eluted ([2]; 40° C. DI H2O, 56 days): 7.5 ± 0.1 mg | lidocaine eluted, percent ([2]; 100° C. DI H2O, 0.6 hours): 19% | amount of lidocaine eluted ([2]; 100° C. DI H2O, 0.6 hours): 2.0 ± 0.0 mg | lidocaine eluted, percent ([2]; 100° C. DI H2O, 2.6 hours): 38% | amount of lidocaine eluted ([2]; 100° C. DI H2O, 2.6 hours): 4.1 ± 0.1 mg | lidocaine eluted, percent ([2]; 100° C. DI H2O, 5.3 hours): 49% | amount of lidocaine eluted ([2]; 100° C. DI H2O, 5.3 hours): 5.2 ± 0.0 mg | lidocaine eluted, percent ([2]; 100° C. DI H2O, 12 hours): 70% | amount of lidocaine eluted ([2]; 100° C. DI H2O, 12 hours): 7.3 ± 0.0 mg | lidocaine eluted, percent ([2]; 100° C. DI H2O, 24 hours): 79% | amount of lidocaine eluted ([2]; 100° C. DI H2O, 24 hours): 8.6 ± 0.2 mg | lidocaine eluted, percent ([2]; 100° C. DI H2O, 48 hours): 85% | amount of lidocaine eluted ([2]; 100° C. DI H2O, 48 hours): 9.0 ± 0.1 mg | amount of lidocaine absorbed ([3]; doping time 1 hour): 10.6 ± 0.3 mg | amount of lidocaine absorbed ([3]; doping time 2 hours): 16.8 ± 0.1 mg | amount of lidocaine absorbed ([3]; doping time 6 hours): 30.8 ± 0.2 mg and ~31 mg | amount of lidocaine absorbed ([3]; doping time 12 hours): 40.3 ± 0.2 mg | amount of lidocaine absorbed ([3]; doping time 24 hours): 52.1 ± 0.9 mg | amount of lidocaine absorbed ([3]; doping time […]): 3.0 ± 0.1 mg

CCCCN1CCCCC1C(=O)Nc1c(C)cccc1C.Cl (stereo not shown) [bupivacaine hydrochloride, 1-Butyl-N-(2,6-dimethylphenyl)-2-piperidinecarboxamide hydrochloride]
solubility in cold water [4]: soluble | solubility in diethyl ether [4]: partially soluble | solubility in methanol [4]: easily soluble
